US20150105252A1, “SUBSTITUTED PYRAZOLES AS HERBICIDES” (E I DU PONT DE NEMOURS AND COMPANY, priority 2013, published 2015)

Legend:
Details in all cases: scale 0 to 100
foxtail, green = assay: Test D postemergence; format: in vivo, Setaria viridis
Method in brief: (§1)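 Visual 0–100 control ratings at 14–21 days in a controlled growth environment. Application preemergence onto silt loam or postemergence onto 2–18 cm seedlings, using a non-phytotoxic solvent formulation with surfactant.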

kochia = assay: Test D postemergence; format: in vivo, Kochia scoparia
Source text: (§2) Seeds of plant species selected from bluegrass (annual bluegrass, Poa annua), blackgrass (Alopecurus myosuroides), canarygrass (littleseed canarygrass, Phalaris minor), chickweed (common chickweed, Stellaria media), galium (catchweed bedstraw, Galium aparine), bromegrass, downy (downy bromegrass, Bromus tectorum), field poppy (Papaver rhoeas), field violet (Viola arvensis), foxtail, green (green foxtail, Setaria viridis), deadnettle (henbit deadnettle, Lamium amplexicaule), ryegrass, Italian (Italian ryegrass, Lolium multiflorum), kochia (Kochia scoparia), lambsquarters (Chenopodium album), oilseed rape (Brassica napus), pigweed (redroot pigweed, Amaranthus retroflexus), chamomile (scentless chamomile, Matricaria inodora), speedwell (bird's-eye speedwell, Veronica persica), barley, spring (spring barley, Hordeum vulgare), wheat, spring (spring wheat, Triticum aestivum), buckwheat, wild (wild buckwheat, Polygonum convolvulus), mustard, wild (wild mustard, Sinapis arvensis), oat, wild (wild oat, Avena fatua), radish, wild (wild radish, Raphanus raphanistrum), windgrass (Apera spica-venti), Russian thistle (Salsola kali), barley, winter (winter barley, Hordeum vulgare), and wheat, winter (winter wheat, Triticum aestivum) were planted into a silt loam soil and treated preemergence with test chemicals formulated in a non-phytotoxic solvent mixture which included a surfactant.
(§3) At the same time, these species were planted in pots containing Redi-Earth® planting medium (Scotts Company, 14111 Scottslawn Road, Marysville, Ohio 43041) comprising spaghnum peat moss, vermiculite, wetting agent and starter nutrients and treated with postemergence applications of the test chemicals formulated in the same manner. Plants ranged in height from 2 to 18 cm (1- to 4-leaf stage). Treated plants and controls were maintained in a controlled growth environment for 14 to 21 days after which time all species were compared to controls and visually evaluated. Plant response ratings, summarized in Table D, are based on a scale of 0 to 100 where 0 is no effect and 100 is complete control. A dash (-) response means no test result.

galium = assay: Test D postemergence; format: in vivo, Galium aparine
Method in brief: as §1

oilseed rape [1] = assay: Test D preemergence; format: in vivo, Brassica napus
Method in brief: as §1

mustard, wild = assay: Test D postemergence; format: in vivo, Sinapis arvensis
Method in brief: as §1

lambsquarters = assay: Test D preemergence; format: in vivo, Chenopodium album
Source text: as §2, §3

oilseed rape [2] = assay: Test D postemergence; format: in vivo, Brassica napus
Method in brief: as §1

wheat, spring = assay: Test D postemergence; format: in vivo, Triticum aestivum
Method in brief: as §1

wheat, winter = assay: Test D postemergence; format: in vivo, Triticum aestivum
Method in brief: as §1

SMILES | Foxtail, Green plant response rating (foxtail, green; Postemergence, 31 g ai/ha) | Foxtail, Green plant response rating (foxtail, green; Postemergence, 125 g ai/ha) | Foxtail, Green plant response rating (foxtail, green; Postemergence, 250 g ai/ha) | Foxtail, Green plant response rating (foxtail, green; postemergence, 62 g ai/ha) | Kochia plant response rating (kochia; Postemergence, 31 g ai/ha) | Kochia plant response rating (kochia; Postemergence, 125 g ai/ha) | Kochia plant response rating (kochia; Postemergence, 250 g ai/ha) | Kochia plant response rating (kochia; postemergence, 62 g ai/ha) | Galium plant response rating (galium; Postemergence, 31 g ai/ha) | Galium plant response rating (galium; Postemergence, 125 g ai/ha) | Galium plant response rating (galium; Postemergence, 250 g ai/ha) | Galium plant response rating (galium; postemergence, 62 g ai/ha) | Plant response rating, Oilseed Rape (oilseed rape [1]; 62 g ai/ha) | Plant response rating, Oilseed Rape (oilseed rape [1]; 125 g ai/ha) | Plant response rating, Oilseed Rape (oilseed rape [1]; 250 g ai/ha) | Mustard, Wild plant response rating (mustard, wild; Postemergence, 31 g ai/ha) | Mustard, Wild plant response rating (mustard, wild; Postemergence, 125 g ai/ha) | Mustard, Wild plant response rating (mustard, wild; Postemergence, 250 g ai/ha) | Mustard, Wild plant response rating (mustard, wild; postemergence, 62 g ai/ha) | Plant response rating, Lambsquarters (lambsquarters; 62 g ai/ha) | further results
CCCc1cc(C(=O)NCC(F)(F)F)nn1Cc1cc(C(F)(F)F)nn1C [Compound 138] | 15 | 65 | 80 | 15 | 75 | 80 | 80 | 75 | 80 | 100 | 100 | 80 | 40 | 100 | 100 | 100 | 100 | 100 | 100 | 85 | Plant response rating, Lambsquarters (lambsquarters; 125 g ai/ha): 100; Plant response rating, Lambsquarters (lambsquarters; 250 g ai/ha): 100; Oilseed Rape plant response rating (oilseed rape [2]; Postemergence, 31 g ai/ha): 60; Oilseed Rape plant response rating (oilseed rape [2]; Postemergence, 125 g ai/ha): 90; Oilseed Rape plant response rating (oilseed rape [2]; Postemergence, 250 g ai/ha): 100; Oilseed Rape plant response rating (oilseed rape [2]; postemergence, 62 g ai/ha): 60; Wheat, Spring plant response rating (wheat, spring; Postemergence, 31 g ai/ha): 15; Wheat, Spring plant response rating (wheat, spring; Postemergence, 125 g ai/ha): 15; Wheat, Spring plant response rating (wheat, spring; Postemergence, 250 g ai/ha): 25; Wheat, Spring plant response rating (wheat, spring; postemergence, 62 g ai/ha): 15; Wheat, Winter plant response rating (wheat, winter; Postemergence, 31 g ai/ha): 15; Wheat, Winter plant response rating (wheat, winter; Postemergence, 125 g ai/ha): 20; Wheat, Winter plant response rating (wheat, winter; Postemergence, 250 g ai/ha): 35; Wheat, Winter plant response rating (wheat, winter; postemergence, 62 g ai/ha): 15
CCOc1cc(C(=O)NC2CC2)nn1Cc1ccnc(C(F)(F)F)c1 [Compound 189] | 20 | 15 | 50 | 20 | 75 | 80 | 85 | 75 | 75 | 75 | 85 | 75 | 55 | 80 | 100 | 40 | 40 | 80 | 40 | 100 | Plant response rating, Lambsquarters (lambsquarters; 125 g ai/ha): 100; Plant response rating, Lambsquarters (lambsquarters; 250 g ai/ha): 100; Oilseed Rape plant response rating (oilseed rape [2]; Postemergence, 31 g ai/ha): 40; Oilseed Rape plant response rating (oilseed rape [2]; Postemergence, 125 g ai/ha): 55; Oilseed Rape plant response rating (oilseed rape [2]; Postemergence, 250 g ai/ha): 60; Oilseed Rape plant response rating (oilseed rape [2]; postemergence, 62 g ai/ha): 40; Wheat, Spring plant response rating (wheat, spring; Postemergence, 31 g ai/ha): 0; Wheat, Spring plant response rating (wheat, spring; Postemergence, 125 g ai/ha): 5; Wheat, Spring plant response rating (wheat, spring; Postemergence, 250 g ai/ha): 25; Wheat, Spring plant response rating (wheat, spring; postemergence, 62 g ai/ha): 0; Wheat, Winter plant response rating (wheat, winter; Postemergence, 31 g ai/ha): 20; Wheat, Winter plant response rating (wheat, winter; Postemergence, 125 g ai/ha): 25; Wheat, Winter plant response rating (wheat, winter; Postemergence, 250 g ai/ha): 50; Wheat, Winter plant response rating (wheat, winter; postemergence, 62 g ai/ha): 20
